Numbers after ± are expanded uncertainties. Each block holds one compound with its values, some of them ahead of it.
Test: wn = mass fraction of the nth substance listed
Settings: 88.35 kPa, Liquid; for viscosity: Capillary tube (Ostwald / Ubbelohde) method

viscosity (298.15 K, w1 = 0.2075): 1.198 ± 0.12 mPa·s
mass density (298.15 K, Weighing bottle method, w1 = 0.2075): 1144 ± 11 kg/m3
viscosity (313.15 K, w1 = 0.2579): 1.013 ± 0.1 mPa·s
mass density (313.15 K, Weighing bottle method, w1 = 0.2579): 1187.2 ± 12 kg/m3
SMILES: O=P([O-])(O)O.[K+] [monopotassium phosphate] + O

viscosity (298.15 K, w1 = 0.1156): 1.015 ± 0.1 mPa·s
mass density (298.15 K, weighing bottle method, w1 = 0.1156): 1084.3 ± 11 kg/m3
viscosity (313.15 K, w1 = 0.1337): 0.7917 ± 0.08 mPa·s
mass density (313.15 K, weighing bottle method, w1 = 0.1337): 1097.7 ± 11 kg/m3
SMILES: O=S(=O)([O-])[O-].[K+].[K+] [potassium sulfate] + O

viscosity (298.15 K, w1 = 0.2672): 0.8122 ± 0.081 mPa·s
mass density (298.15 K, Weighing bottle method, w1 = 0.2672): 1180 ± 12 kg/m3
viscosity (313.15 K, w1 = 0.29): 0.6778 ± 0.068 mPa·s
mass density (313.15 K, Weighing bottle method, w1 = 0.29): 1192 ± 12 kg/m3
SMILES: [Cl-].[K+] [potassium chloride] + O

Reference: the NIST ThermoML archive (doi:10.1016/j.fluid.2017.04.010)
